Experimental data: patent publication US11590137B2, “Ruxolitinib formulation for reduction of itch in atopic dermatitis” (Incyte Corporation, priority 2019, dated 2023)
Like-named read-outs stand apart in the source and are kept apart here.

Key:
[1] = Solubility of ruxolitinib free base or 1:1 phosphate salt in potential solvents (HPLC); format: physicochemical; conditions: for solubility at 24 h: thermodynamic from solid; for Solubility: listed as Free Base
Procedure: First, in order to determine the solubility of ruxolitinib (free base) or its 1:1 phosphate salt, approximately 5 mL of a potential solvent was added to approximately 50 mg of the API or its salt at room temperature. The mixtures were suspended and rotated on a wheel. If the mixtures became clear solutions, more solid material was added. The suspensions were then suspended over 24 hours. The samples were filtered through 0.2 micron filters. The liquid portions were collected and diluted with 50/50 water methanol/water. The concentrations of the diluted samples were analyzed by HPLC. When the free base or salt was fairly insoluble, the results are approximate only.

[2] = test system: patients with moderate-to-severe AD; conditions: subcutaneous, At Week 16, Solo1 and Solo2 trials, cited from earlier work; for Proportion of patient achieving a 4-point improvement in itch NRS score: itch NRS score of ≥4 at baseline
[3] = 300 mg every other week, first printed value
[4] = 300 mg every other week, second printed value
[5] = 300 mg every week, first printed value
[6] = 300 mg every week, second printed value

N#CC[C@H](C1CCCC1)n1cc(-c2ncnc3[nH]ccc23)cn1 [ruxolitinib phosphate]
solubility at 24 h ([1]; C12-15 alcohol benzoate, oil or lipid): < 200 µg/mL
solubility at 24 h ([1]; caprylic triglyceride, oil or lipid): < 200 µg/mL
solubility at 24 h ([1]; dimethicone, oil or lipid): < 200 µg/mL
solubility at 24 h ([1]; isopropyl myristate, oil or lipid): < 100 µg/mL
solubility at 24 h ([1]; mineral oil, oil or lipid): < 100 µg/mL
solubility at 24 h ([1]; oleyl alcohol, oil or lipid, Olelyl alcohol): 100 µg/mL
solubility at 24 h ([1]; propylene glycol, organic solvent or mixture): 24000 µg/mL
solubility at 24 h ([1]; water/PEG 200 (50/50), aqueous with cosolvent or surfactant or cyclodextrin): 23000 µg/mL
solubility at 24 h ([1]; water/glycerin/trolamine (40/40/20), aqueous with cosolvent or surfactant or cyclodextrin): 18000 µg/mL

N#CC[C@H](C1CCCC1)n1cc(-c2ncnc3[nH]ccc23)cn1 [ruxolitinib, (R)-3-(4-(7H-pyrrolo[2,3-d]pyrimidin-4-yl)-1H-pyrazol-1-yl)-3-cyclopentylpropanenitrile]
solubility at 24 h ([1]; 0.1 M citric buffer, pH 4, aqueous buffer, pH 4, citric buffer, 0.1M): 1100 µg/mL
solubility at 24 h ([1]; 0.1 M citric buffer, pH 6, aqueous buffer, pH 6, citric buffer, 0.1M): 150 µg/mL
Solubility ([1]; C12-15 alcohol benzoate): 150 µg/mL
Solubility ([1]; Caprylic triglyceride): 150 µg/mL
Solubility ([1]; Mineral oil): 80 µg/mL
Solubility ([1]; Olelyl alcohol): 80 µg/mL
solubility at 24 h ([1]; PEG 200, organic solvent or mixture, PEG 200): 17400 µg/mL
solubility at 24 h ([1]; PEG 300, organic solvent or mixture, PEG 300): 10600 µg/mL
solubility at 24 h ([1]; Transcutol, organic solvent or mixture): 7600 µg/mL
Solubility ([1]; Water/PEG 200 (50/50)): 17400 µg/mL
solubility at 24 h ([1]; benzyl alcohol, organic solvent or mixture): 2300 µg/mL
solubility at 24 h ([1]; ethanol, organic solvent or mixture): 5500 µg/mL
solubility at 24 h ([1]; glycerin, organic solvent or mixture): 8300 µg/mL
solubility at 24 h ([1]; isopropanol, organic solvent or mixture): 450 µg/mL
solubility at 24 h ([1]; isosorbide dimethyl ether, organic solvent or mixture): 300 µg/mL
solubility at 24 h ([1]; trolamine, organic solvent or mixture): 38600 µg/mL
solubility at 24 h ([1]; water, room temperature): 2000 µg/mL
solubility at 24 h ([1]; water/glycerin (50/50), aqueous with cosolvent or surfactant or cyclodextrin, Water/glyercin (50/50)): 15900 µg/mL

dupilumab: a systemic biologic agent; phase 3 trials in moderate-to-severe AD cited for comparison
Proportion of patients achieving EASI-75 [2, 3]: 44%
Proportion of patients achieving IGA-TS [2, 3]: 36%
Proportion of patients achieving EASI-75 [2, 4]: 51%
Proportion of patients achieving IGA-TS [2, 4]: 38%
Proportion of patient achieving a 4-point improvement in itch NRS score [2, 3]: 36%
Proportion of patient achieving a 4-point improvement in itch NRS score [2, 4]: 41%
Proportion of patients achieving EASI-75 [2, 5]: 48%
Proportion of patients achieving IGA-TS [2, 5]: 36%
Proportion of patients achieving EASI-75 [2, 6]: 52%
Proportion of patients achieving IGA-TS [2, 6]: 37%
Proportion of patient achieving a 4-point improvement in itch NRS score [2, 5]: 39%
Proportion of patient achieving a 4-point improvement in itch NRS score [2, 6]: 40%
